In patent US7671061B2, “Methods and compositions for treating pain” (Hydra Biosciences, Inc., priority 2005, dated 2010):

Each compound was assayed against T1, hTRPA1 (Homo sapiens, UniProt O75762, K186N) (assay: High throughput Ca2+ fluorescence (Fluo4) assay, AITC stimulation). Conditions: Table 1; read-out: hTRPA1 Fluo4 IC50.
T1 construct: expressed in transfected cells; host or cells: HEK293/TREx (Invitrogen), induced with tetracycline
T1 sequence (O75762 whole entry K186N): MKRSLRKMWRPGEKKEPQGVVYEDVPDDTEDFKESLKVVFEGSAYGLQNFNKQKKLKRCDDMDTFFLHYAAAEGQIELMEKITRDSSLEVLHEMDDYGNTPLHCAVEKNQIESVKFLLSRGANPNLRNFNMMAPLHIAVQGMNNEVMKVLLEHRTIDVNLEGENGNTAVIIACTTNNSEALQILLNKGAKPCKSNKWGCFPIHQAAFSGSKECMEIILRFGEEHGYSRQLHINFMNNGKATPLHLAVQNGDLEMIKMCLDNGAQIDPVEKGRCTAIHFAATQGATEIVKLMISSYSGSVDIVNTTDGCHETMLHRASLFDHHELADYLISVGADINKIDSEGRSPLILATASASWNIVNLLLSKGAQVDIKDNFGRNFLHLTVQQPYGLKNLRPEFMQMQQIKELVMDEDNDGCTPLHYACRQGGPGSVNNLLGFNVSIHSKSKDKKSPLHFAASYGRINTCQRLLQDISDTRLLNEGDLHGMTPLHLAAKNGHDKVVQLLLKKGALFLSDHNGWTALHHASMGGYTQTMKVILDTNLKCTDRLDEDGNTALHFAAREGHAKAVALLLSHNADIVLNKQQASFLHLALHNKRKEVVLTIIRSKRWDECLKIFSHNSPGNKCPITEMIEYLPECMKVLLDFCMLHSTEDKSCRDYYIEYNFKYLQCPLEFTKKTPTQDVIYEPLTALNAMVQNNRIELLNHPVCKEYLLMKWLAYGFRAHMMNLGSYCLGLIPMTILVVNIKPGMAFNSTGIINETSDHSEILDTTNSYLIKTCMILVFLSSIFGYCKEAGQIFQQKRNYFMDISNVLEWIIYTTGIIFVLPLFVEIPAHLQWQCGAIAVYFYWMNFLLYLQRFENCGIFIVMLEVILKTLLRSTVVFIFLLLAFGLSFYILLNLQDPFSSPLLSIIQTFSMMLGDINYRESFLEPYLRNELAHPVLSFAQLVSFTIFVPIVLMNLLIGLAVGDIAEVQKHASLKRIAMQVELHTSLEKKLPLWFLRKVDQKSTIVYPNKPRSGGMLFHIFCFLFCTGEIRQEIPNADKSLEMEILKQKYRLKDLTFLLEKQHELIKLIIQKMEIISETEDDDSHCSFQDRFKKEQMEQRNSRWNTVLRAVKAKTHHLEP
Assay type: cell-based
Description: The assay depended on detection of the rise in intracellular Ca^2+ concentration ([Ca^2+]i) following channel activation in cells inducibly expressing the TRPA1 channel. Ca^2+ rise was quantified with the use of fluorescent Ca^2+ indicators that were loaded into cells and thereafter indicated the [Ca^2+]i. Ca^2+ influx followed activation of the TRPA1 channel. Compounds inhibiting the [Ca^2+]i rise were considered hits for further investigation.
These cells were maintained in the growth medium recommended by the manufacturer supplemented with 100 μg/ml hygromycin to promote retention of the TRPA1 construct. After growing to near confluency, cells were plated at a density of ˜25,000 cells/well in 384 well CellBind plates (Corning) in the presence of 1 μg/ml tetracycline, and allowed to grow for 20-30 hrs. A nearly confluent monolayer resulted. Cells were then loaded with Ca^2+ dye: Fura-2/AM or Fluo4/AM was added to the wells to a final concentration of 2 μM or 1 μM, respectively, and incubated for 80 min or 60 min, respectively, at room temperature. […] Frames were acquired at a rate of 0.2 Hz. During the assay, the plates were continuously […], with pipette mixing of wells following addition of each reagent. For the screening assay, 13 μl of a diluted stock (at 50 μM) was added to each well for 2 minutes following the collection of a short (4 frame) baseline. […] Data was collected for ˜3 minutes following addition of AITC, where the fluorescent intensity (for Fluo4) and the F340/F380 ratio (for Fura-2) were proportional to the [Ca^2+]i. Negative controls consisted of HEK293/TREx TRPA1 cells exposed to AITC, but no compound. […] These controls defined a screening window, and “hits” were defined as those compounds inhibiting the fluorescence response by at least 40%. IC50 values were determined for compounds defined as “hits.” The Fluo4 cell-based fluorescence assay was used to determine the intracellular Ca^2+ concentration in the presence of varying drug concentration. […] Compounds were tested in triplicate at all concentrations. Standard software was used to fit IC50 curves.
In the case of CC1=C(C(=O)OC2CCCC2)C(c2ccccc2Cl)NC(=O)N1C (centres unmarked), the IC50 is reported as > 10 µM.
In the case of COC(=O)C1=C(C)N(C)C(=S)NC1c1ccc(Cl)cc1 (centres unmarked), the IC50 is reported as ≤ 10 µM.
With COC(=O)C1=C(C)NC(=O)NC1c1cc(C)ccc1C (centres unmarked) the IC50 was > 10 µM.
In the case of CCOC(=O)C1=C(C)NC(=O)NC1c1ccc(SC)cc1 (centres unmarked), the IC50 is reported as > 10 µM.
With CCOC(=O)C1=C(C)NC(=S)NC1c1cccc(OC2CCCC2)c1 (centres unmarked) the IC50 was ≤ 5 µM.
CCOC(=O)C1=C(CN2CCN(C)CC2)NC(=O)NC1c1cc(C)ccc1C (centres unmarked) was tested, and the IC50 was > 10 µM.
In the case of CCC(C)OC(=O)C1=C(C)NC(=O)NC1c1ccc(F)c(Br)c1 (centres unmarked), the IC50 is reported as > 10 µM.
C=CCOC(=O)C1=C(C)NC(=O)NC1c1ccc(C)cc1 (centres unmarked) was tested, and the IC50 was ≤ 5 µM.
With COc1cccc(C2NC(=S)NC(C)=C2C(=O)N(C)C)c1OC (centres unmarked) the IC50 was > 10 µM.
For COC(=O)C1=C(C)NC(=O)NC1c1ccc(O)c(OC)c1 (centres unmarked), the IC50 was > 10 µM.
In the case of COC(=O)C1=C(C)N(C)C(=O)NC1c1c(F)cccc1Cl (centres unmarked), the IC50 is reported as > 10 µM.
For CC1=C(C(=O)Nc2ccccc2)C(c2ccccc2)NC(=S)N1 (centres unmarked), the IC50 was ≥ 30 µM.
For CCCC1=C(C(=O)OCC)C(c2cccc([N+](=O)[O-])c2)NC(=O)N1C (centres unmarked), the IC50 was > 10 µM.
With CC1=C(C(=O)OCc2ccccc2)C(c2ccc(C(C)C)cc2)NC(=O)N1 (centres unmarked) the IC50 was > 10 µM.
With CCOC(=O)C1=C(C)NC(=S)NC1c1ccccc1OC1CCCC1 (centres unmarked) the IC50 was > 10 µM.
In the case of CCN(CC)C(=O)C1=C(C)NC(=S)NC1c1ccc(C)cc1 (centres unmarked), the IC50 is reported as > 10 µM.
With CCCOC(=O)C1=C(C)NC(=O)NC1c1ccccc1Br (centres unmarked) the IC50 was > 10 µM.
With C=CCOC(=O)C1=C(C)NC(=O)NC1c1c(Cl)cccc1Cl (centres unmarked) the IC50 was > 10 µM.
For COC(=O)C1=C(C)N(C)C(=O)NC1c1cccc(Cl)c1Cl (centres unmarked), the IC50 was > 10 µM.
With CCOC(=O)C1=C(CN2CCCCC2)NC(=O)NC1c1cc(C)ccc1C (centres unmarked) the IC50 was > 10 µM.
With CC1=C(C(=O)OC(C)C(C)C)C(c2ccc(C)cc2)NC(=O)N1 (centres unmarked) the IC50 was > 10 µM.
In the case of CC1=C(C(=O)Nc2ccccc2)C(c2ccc(Br)cc2)NC(=S)N1 (centres unmarked), the IC50 is reported as > 10 µM.
In the case of CC1=C(C(=O)OCc2ccccc2)C(c2ccccc2F)NC(=O)N1 (centres unmarked), the IC50 is reported as > 10 µM.
For C=CCOC(=O)C1=C(C)NC(=S)NC1c1ccccc1OCC (centres unmarked), the IC50 was > 10 µM.
For CC1=C(C(=O)OCc2ccc(C)cc2)C(c2ccccc2F)NC(=O)N1 (centres unmarked), the IC50 was > 10 µM.
CCCOC(=O)C1=C(C)NC(=O)NC1c1cccc2ccccc12 (centres unmarked) was tested, and the IC50 was > 10 µM.
CC1=C(C(=O)OC(C)C)C(c2cccc(Br)c2)NC(=O)N1 (centres unmarked) was tested, and the IC50 was > 10 µM.
CCOC(=O)C1=C(c2ccccc2)NC(=S)NC1c1ccc(OCC)cc1 (centres unmarked) was tested, and the IC50 was > 10 µM.
With COC(=O)C1=C(CN2CCCCC2)NC(=O)NC1c1ccc(C)cc1C (centres unmarked) the IC50 was > 10 µM.
With CCOC(=O)C1=C(c2ccc(N(C)C)cc2)NC(=O)NC1c1ccccc1 (centres unmarked) the IC50 was ≤ 1 µM.
For CCOC(=O)C1=C(C)NC(=S)NC1c1cc(C)ccc1C (centres unmarked), the IC50 was > 10 µM.
CC1=C(C(=O)OCCc2ccccc2)C(c2ccc(Cl)cc2)NC(=O)N1 (centres unmarked) was tested, and the IC50 was ≤ 5 µM.
In the case of CC1=C(C(=O)OCCC(C)C)C(c2ccc(Cl)c(Cl)c2)NC(=O)N1 (centres unmarked), the IC50 is reported as > 10 µM.
With CCOC(=O)C1=C(C(C)C)NC(=O)NC1c1ccc(F)cc1 (centres unmarked) the IC50 was > 10 µM.
For CCC(C)OC(=O)C1=C(C)NC(=O)NC1c1ccccc1Cl (centres unmarked), the IC50 was > 10 µM.
In the case of CCOC(=O)C1=C(CN2CCc3ccccc32)NC(=O)NC1c1cccc([N+](=O)[O-])c1 (centres unmarked), the IC50 is reported as > 10 µM.
CCOC(=O)C1=C(C)NC(=S)NC1c1ccc(O)cc1 (centres unmarked) was tested, and the IC50 was > 10 µM.
In the case of CCOC(=O)C1=C(C)NC(=S)NC1c1cc(OC)ccc1Br (centres unmarked), the IC50 is reported as > 10 µM.
CCN1C(=O)NC(c2c(F)cccc2Cl)C(C(=O)OC)=C1C (centres unmarked) was tested, and the IC50 was > 10 µM.
In the case of CCOC(=O)C1=C(c2ccccc2)N(C)C(=O)NC1c1ccccc1F (centres unmarked), the IC50 is reported as > 10 µM.
For CCCC1=C(C(=O)OCC)C(c2ccc(CC)cc2)NC(=O)N1 (centres unmarked), the IC50 was > 10 µM.
CC1=C(C(=O)OC2CCCCCC2)C(c2cccc(Cl)c2)NC(=O)N1 (centres unmarked) was tested, and the IC50 was > 10 µM.
With COC(=O)C1=C(C)N(C)C(=O)NC1c1ccccc1C (centres unmarked) the IC50 was > 10 µM.
With CCOC(=O)C1=C(CN2CC(C)CC(C)C2)NC(=O)NC1c1ccc(Cl)cc1 (centres unmarked) the IC50 was > 10 µM.

Same assay, conditions: Table 2; read-out: hTRPA1 Fluor IC50
With CCNC(=O)Cn1cnc2c1c(=O)n(C)c(=O)n2C [Compound 216] the IC50 was > 10 µM.
COC(=O)C(CC(C)C)NC(=O)Cn1cnc2c1c(=O)n(C)c(=O)n2C (centres unmarked) [Compound 378] was tested, and the IC50 was > 10 µM.
With CCC(C)(C)NC(=O)Cn1cnc2c1c(=O)n(C)c(=O)n2C [Compound 382] the IC50 was > 10 µM.
In the case of COc1ccccc1NC(=O)Cn1cnc2c1c(=O)n(C)c(=O)n2C [Compound 361], the IC50 is reported as > 10 µM.
CC(C(=O)Nc1cc(Cl)cc(Cl)c1)n1cnc2c1c(=O)n(C)c(=O)n2C (centres unmarked) [Compound 314] was tested, and the IC50 was ≤ 10 µM.
With Cc1ccc(NC(=O)Cn2cnc3c2c(=O)n(C)c(=O)n3C)c(Cl)c1 [Compound 263] the IC50 was > 10 µM.
Cn1c(=O)c2c(ncn2CC(=O)Nc2ncc(Cl)cc2Cl)n(C)c1=O [Compound 341] was tested, and the IC50 was > 10 µM.
In the case of CSc1cccc(NC(=O)Cn2cnc3c2c(=O)n(C)c(=O)n3C)c1 [Compound 282], the IC50 is reported as ≤ 10 µM.
In the case of CC(C(=O)Nc1cccc(Cl)c1)n1cnc2c1c(=O)n(C)c(=O)n2C (centres unmarked) [Compound 297], the IC50 is reported as > 10 µM.
With Cc1c(C#N)c(NC(=O)Cn2cnc3c2c(=O)n(C)c(=O)n3C)n(Cc2ccccc2)c1C [Compound 356] the IC50 was > 10 µM.
In the case of Cn1c(=O)c2c(ncn2CC(=O)Nc2ccccn2)n(C)c1=O [Compound 369], the IC50 is reported as > 10 µM.
With Cc1cc(C)c(NC(=O)Cn2cnc3c2c(=O)n(C)c(=O)n3C)c(C)c1 [Compound 375] the IC50 was > 10 µM.
In the case of CC(=O)c1ccc(NC(=O)Cn2cnc3c2c(=O)n(C)c(=O)n3C)cc1 [Compound 360], the IC50 is reported as ≤ 10 µM.
In the case of CC(C)N(c1ccccc1)c1ccc(NC(=O)Cn2cnc3c2c(=O)n(C)c(=O)n3C)cc1 [Compound 273], the IC50 is reported as ≤ 10 µM.
For Cn1c(=O)c2c(ncn2CC(=O)NCC(c2ccco2)N2CCCC2)n(C)c1=O (centres unmarked) [Compound 308], the IC50 was > 10 µM.
In the case of CC(C(=O)Nc1ccccc1)n1cnc2c1c(=O)n(C)c(=O)n2C (centres unmarked) [Compound 302], the IC50 is reported as > 10 µM.
In the case of Cn1c(=O)c2c(ncn2CC(=O)Nc2ccccc2Cc2ccccc2)n(C)c1=O [Compound 258], the IC50 is reported as > 10 µM.
For Cc1ccc(NC(=O)Cn2cnc3c2c(=O)n(C)c(=O)n3C)c([N+](=O)[O-])c1 [Compound 222], the IC50 was > 10 µM.
With Cc1cccc(NC(=O)c2ccccc2NC(=O)Cn2cnc3c2c(=O)n(C)c(=O)n3C)c1 [Compound 355] the IC50 was ≥ 20 µM.
Cn1c(=O)c2c(ncn2CC(=O)NCCc2c[nH]c3ccccc23)n(C)c1=O [Compound 335] was tested, and the IC50 was > 10 µM.
Cc1sc(NC(=O)Cn2cnc3c2c(=O)n(C)c(=O)n3C)nc1-c1ccc(Cl)cc1 [Compound 287] was tested, and the IC50 was ≤ 10 µM.
For Cn1c(=O)c2c(ncn2CC(=O)NC(c2ccccc2)c2cccs2)n(C)c1=O (centres unmarked) [Compound 352], the IC50 was > 10 µM.
With Cn1c(=O)c2c(ncn2CC(=O)NCc2cccc(C(F)(F)F)c2)n(C)c1=O [Compound 275] the IC50 was > 10 µM.
For Cn1c(=O)c2c(ncn2CC(=O)NC2CCCC2)n(C)c1=O [Compound 218], the IC50 was > 10 µM.
With Cn1c(=O)c2c(ncn2CC(=O)Nc2ccc(F)c(F)c2F)n(C)c1=O [Compound 276] the IC50 was > 10 µM.
With COc1ccc(CNC(=O)Cn2cnc3c2c(=O)n(C)c(=O)n3C)cc1 [Compound 364] the IC50 was > 10 µM.
CC(C)C(NC(=O)Cn1cnc2c1c(=O)n(C)c(=O)n2C)c1ccc2c(c1)OCCCO2 (centres unmarked) [Compound 345] was tested, and the IC50 was > 10 µM.
With COC(=O)c1ccc(NC(=O)Cn2cnc3c2c(=O)n(C)c(=O)n3C)cc1 [Compound 363] the IC50 was ≤ 10 µM.
Cc1ccc(NC(=O)Cn2cnc3c2c(=O)n(C)c(=O)n3C)cc1 [Compound 259] was tested, and the IC50 was > 10 µM.
Cn1c(=O)c2c(ncn2CC(=O)NCc2ccc(F)cc2)n(C)c1=O [Compound 238] was tested, and the IC50 was > 10 µM.
